Data published in patent EP0044212B1, “Herbicidal o-alkylsulfonyloxy- and o-alkylsulfonylamino-benzenesulfonamides” (E.I. DU PONT DE NEMOURS AND COMPANY, priority 1980, dated 1982).

How the values were obtained:
Test in all cases: Test A greenhouse herbicide screen
Cotton = type: in vivo; conditions: POST-EMERGENCE, 16 days
Description: (§1) Seeds of crabgrass (Digitaria spp.), barnyardgrass (Echinochloa crusgalli), wild oats (Avena fatua), cassia (Cassia tora), morningglory (Ipomoea sp.), cocklebur (Xanthium spp.), sorghum, corn, soybean, rice, wheat and nutsedge tubers (Cyperus rotundus) were planted in a growth medium and treated preemergence with the chemicals dissolved in a non-phytotoxic solvent solution of the compounds of Table A. At the same time, cotton having five leaves (including cotyledonary ones), bush beans with the third trifoliate leaf expanding, crabgrass and barnyardgrass with two leaves, wild oats with two leaves, cassia with three leaves (including cotyledonary ones), morningglory and cocklebur with four leaves (including the cotyldonary ones), sorghum and corn with four leaves, soybean with two cotyledonary leaves, rice with three leaves, wheat with one leaf, and nutsedge with three-five leaves were sprayed with a non-phytotoxic solvent solution of the compounds of Table A. Other containers of the above mentioned weeds and crops were treated pre- or post-emergence with the same non-phytotoxic solvent so as to provide a solvent control. A set of untreated control plants was also included for comparison. Pre- emergence and post-emergence treated plants and controls were maintained in a greenhouse for sixteen days, then all treated plants were compared with their respective controls and rated visually for response to treatment.

Corn = type: in vivo; conditions: 16 days
Description: as §1

Sorghum = type: in vivo; conditions: 16 days
Description: as §1

Wild Oats = type: in vivo, Avena fatua; conditions: 16 days
Description: as §1

Morningglory = type: in vivo, Ipomoea sp.; conditions: 16 days
Description: as §1

Barnyardgrass = type: in vivo, Echinochloa crusgalli; conditions: 16 days
Description: as §1

Cocklebur = type: in vivo, Xanthium spp.; conditions: 16 days
Description: as §1

Bush Bean = type: in vivo, bush beans; conditions: POST-EMERGENCE, 16 days
Description: as §1

Cassia = type: in vivo, Cassia tora; design: scale not given here; conditions: 16 days
Description: as §1

Wheat = type: in vivo; design: scale not given here; conditions: 16 days
Description: as §1

Rice = type: in vivo; design: scale not given here; conditions: 16 days
Description: as §1

Soybean = type: in vivo; design: scale not given here; conditions: 16 days
Description: as §1

Nutsedge = type: in vivo, Cyperus rotundus; design: scale not given here; conditions: 16 days
Description: as §1

Crabgrass = type: in vivo, Digitaria spp.; design: scale not given here; conditions: 16 days
Description: as §1

COc1nc(NC(=O)NS(=O)(=O)c2cc(Cl)cc(Cl)c2OS(C)(=O)=O)nc(OC)n1 [Compound 44]
Cotton response rating (Cotton; 2 kg/ha): 0
Cotton response rating (Cotton; 6 kg/ha): 2C
Corn response rating (Corn; POST-EMERGENCE, 2 kg/ha): 0
Corn response rating (Corn; POST-EMERGENCE, 6 kg/ha): 0
Corn response rating (Corn; PRE-EMERGENCE, 2 kg/ha): 0
Sorghum response rating (Sorghum; POST-EMERGENCE, 2 kg/ha): 0
Sorghum response rating (Sorghum; POST-EMERGENCE, 6 kg/ha): 2C
Sorghum response rating (Sorghum; PRE-EMERGENCE, 2 kg/ha): 0
Sorghum response rating (Sorghum; PRE-EMERGENCE, 6 kg/ha): 2C
Wild Oats response rating (Wild Oats; POST-EMERGENCE, 2 kg/ha): 0
Wild Oats response rating (Wild Oats; POST-EMERGENCE, 6 kg/ha): 0
Wild Oats response rating (Wild Oats; PRE-EMERGENCE, 2 kg/ha): 0
Wild Oats response rating (Wild Oats; PRE-EMERGENCE, 6 kg/ha): 0
Morningglory response rating (Morningglory; POST-EMERGENCE, 2 kg/ha): 0
Morningglory response rating (Morningglory; PRE-EMERGENCE, 2 kg/ha): 0
Morningglory response rating (Morningglory; PRE-EMERGENCE, 6 kg/ha): 2C
Barnyardgrass response rating (Barnyardgrass; POST-EMERGENCE, 2 kg/ha): 0
Barnyardgrass response rating (Barnyardgrass; POST-EMERGENCE, 6 kg/ha): 0
Barnyardgrass response rating (Barnyardgrass; PRE-EMERGENCE, 2 kg/ha): 0
Barnyardgrass response rating (Barnyardgrass; PRE-EMERGENCE, 6 kg/ha): 5C
Cocklebur response rating (Cocklebur; POST-EMERGENCE, 2 kg/ha): 0
Cocklebur response rating (Cocklebur; POST-EMERGENCE, 6 kg/ha): 0
Cocklebur response rating (Cocklebur; PRE-EMERGENCE, 2 kg/ha): 0
Cocklebur response rating (Cocklebur; PRE-EMERGENCE, 6 kg/ha): 5H
Bush Bean response rating (Bush Bean; 2 kg/ha): 0
Bush Bean response rating (Bush Bean; 6 kg/ha): 0
Cassia response rating (Cassia; POST-EMERGENCE, 2 kg/ha): 0
Cassia response rating (Cassia; POST-EMERGENCE, 6 kg/ha): 0
Cassia response rating (Cassia; PRE-EMERGENCE, 2 kg/ha): 0
Cassia response rating (Cassia; PRE-EMERGENCE, 6 kg/ha): 5G
Wheat response rating (Wheat; POST-EMERGENCE, 2 kg/ha): 0
Wheat response rating (Wheat; POST-EMERGENCE, 6 kg/ha): 0
Wheat response rating (Wheat; PRE-EMERGENCE, 2 kg/ha): 0
Wheat response rating (Wheat; PRE-EMERGENCE, 6 kg/ha): 0
Rice response rating (Rice; POST-EMERGENCE, 2 kg/ha): 0
Rice response rating (Rice; POST-EMERGENCE, 6 kg/ha): 0
Rice response rating (Rice; PRE-EMERGENCE, 2 kg/ha): 0
Rice response rating (Rice; PRE-EMERGENCE, 6 kg/ha): 1C
Soybean response rating (Soybean; POST-EMERGENCE, 2 kg/ha): 0
Soybean response rating (Soybean; POST-EMERGENCE, 6 kg/ha): 3G
Soybean response rating (Soybean; PRE-EMERGENCE, 2 kg/ha): 0
Soybean response rating (Soybean; PRE-EMERGENCE, 6 kg/ha): 0
Nutsedge response rating (Nutsedge; POST-EMERGENCE, 2 kg/ha): 0
Nutsedge response rating (Nutsedge; POST-EMERGENCE, 6 kg/ha): 0
Nutsedge response rating (Nutsedge; PRE-EMERGENCE, 2 kg/ha): 0
Nutsedge response rating (Nutsedge; PRE-EMERGENCE, 6 kg/ha): 0
Crabgrass response rating (Crabgrass; POST-EMERGENCE, 2 kg/ha): 0
Crabgrass response rating (Crabgrass; POST-EMERGENCE, 6 kg/ha): 0
Crabgrass response rating (Crabgrass; PRE-EMERGENCE, 2 kg/ha): 0
Crabgrass response rating (Crabgrass; PRE-EMERGENCE, 6 kg/ha): 0

COc1nc(C)nc(NC(=O)NS(=O)(=O)c2cc(Cl)cc(Cl)c2OS(C)(=O)=O)n1 [Compound 43]
Cotton response rating (Cotton; 2 kg/ha): 0
Cotton response rating (Cotton; 6 kg/ha): 3C
Corn response rating (Corn; POST-EMERGENCE, 2 kg/ha): 0
Corn response rating (Corn; POST-EMERGENCE, 6 kg/ha): 0
Corn response rating (Corn; PRE-EMERGENCE, 2 kg/ha): 0
Sorghum response rating (Sorghum; POST-EMERGENCE, 2 kg/ha): 0
Sorghum response rating (Sorghum; POST-EMERGENCE, 6 kg/ha): 0
Sorghum response rating (Sorghum; PRE-EMERGENCE, 2 kg/ha): 0
Wild Oats response rating (Wild Oats; POST-EMERGENCE, 2 kg/ha): 0
Wild Oats response rating (Wild Oats; POST-EMERGENCE, 6 kg/ha): 0
Wild Oats response rating (Wild Oats; PRE-EMERGENCE, 2 kg/ha): 0
Morningglory response rating (Morningglory; POST-EMERGENCE, 2 kg/ha): 0
Morningglory response rating (Morningglory; POST-EMERGENCE, 6 kg/ha): 0
Morningglory response rating (Morningglory; PRE-EMERGENCE, 2 kg/ha): 0
Morningglory response rating (Morningglory; PRE-EMERGENCE, 6 kg/ha): 3C
Barnyardgrass response rating (Barnyardgrass; POST-EMERGENCE, 2 kg/ha): 0
Barnyardgrass response rating (Barnyardgrass; POST-EMERGENCE, 6 kg/ha): 1C
Barnyardgrass response rating (Barnyardgrass; PRE-EMERGENCE, 2 kg/ha): 0
Cocklebur response rating (Cocklebur; POST-EMERGENCE, 2 kg/ha): 0
Cocklebur response rating (Cocklebur; POST-EMERGENCE, 6 kg/ha): 0
Cocklebur response rating (Cocklebur; PRE-EMERGENCE, 2 kg/ha): 0
Bush Bean response rating (Bush Bean; 2 kg/ha): 0
Bush Bean response rating (Bush Bean; 6 kg/ha): 3C
Cassia response rating (Cassia; POST-EMERGENCE, 2 kg/ha): 0
Cassia response rating (Cassia; POST-EMERGENCE, 6 kg/ha): 1C
Cassia response rating (Cassia; PRE-EMERGENCE, 2 kg/ha): 0
Cassia response rating (Cassia; PRE-EMERGENCE, 6 kg/ha): 3G
Wheat response rating (Wheat; POST-EMERGENCE, 2 kg/ha): 0
Wheat response rating (Wheat; POST-EMERGENCE, 6 kg/ha): 0
Wheat response rating (Wheat; PRE-EMERGENCE, 2 kg/ha): 0
Wheat response rating (Wheat; PRE-EMERGENCE, 6 kg/ha): 0
Rice response rating (Rice; POST-EMERGENCE, 2 kg/ha): 0
Rice response rating (Rice; POST-EMERGENCE, 6 kg/ha): 0
Rice response rating (Rice; PRE-EMERGENCE, 2 kg/ha): 0
Rice response rating (Rice; PRE-EMERGENCE, 6 kg/ha): 1C
Soybean response rating (Soybean; POST-EMERGENCE, 2 kg/ha): 0
Soybean response rating (Soybean; POST-EMERGENCE, 6 kg/ha): 1C
Soybean response rating (Soybean; PRE-EMERGENCE, 2 kg/ha): 0
Soybean response rating (Soybean; PRE-EMERGENCE, 6 kg/ha): 0
Nutsedge response rating (Nutsedge; POST-EMERGENCE, 2 kg/ha): 0
Nutsedge response rating (Nutsedge; POST-EMERGENCE, 6 kg/ha): 0
Nutsedge response rating (Nutsedge; PRE-EMERGENCE, 2 kg/ha): 0
Nutsedge response rating (Nutsedge; PRE-EMERGENCE, 6 kg/ha): 0
Crabgrass response rating (Crabgrass; POST-EMERGENCE, 2 kg/ha): 0
Crabgrass response rating (Crabgrass; POST-EMERGENCE, 6 kg/ha): 0
Crabgrass response rating (Crabgrass; PRE-EMERGENCE, 2 kg/ha): 0
Crabgrass response rating (Crabgrass; PRE-EMERGENCE, 6 kg/ha): 2G
